{"source": "patent US20240033244A1", "about": "“COMPOSITIONS AND METHODS FOR INHIBITING YTHDF1” (SHANGHAI INSTITUTE OF MATERIA MEDICA, CHINESE ACADEMY OF …, priority 2020, published 2024)", "target": "T1, YTHDF1 (361-559) (Homo sapiens, UniProt Q9BYJ9)", "T1 construct": "GST (N, cleaved yes); made in house; host or cells: E. coli BL21 (DE3)", "T1 sequence (Q9BYJ9 with tags, fused parts or gaps)": "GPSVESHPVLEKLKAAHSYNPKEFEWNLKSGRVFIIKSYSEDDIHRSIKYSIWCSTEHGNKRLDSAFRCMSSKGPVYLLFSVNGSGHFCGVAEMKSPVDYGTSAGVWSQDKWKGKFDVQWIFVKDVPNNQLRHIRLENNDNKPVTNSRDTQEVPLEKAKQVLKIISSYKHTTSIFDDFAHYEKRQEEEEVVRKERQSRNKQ", "assay": "Fluorescence polarization (FP) assay, inhibition of m6A-containing mRNA binding to YTHDF1", "conditions": "read-out: IC50, inhibition of interaction between m6A-containing mRNA and YTHDF1", "protocol": "As for activity tests, 1.25 μM YTHDF1 (361-559) was incubated with candidate compounds diluted to concentrations as indicated for 30 minutes. The subsequent steps were similar to that of HTS. And an equal amount of DMSO was used as the negative control.", "data": [{"smiles": "O=C(/C=C/c1ccc(O)c(O)c1/C=C/c1ccc(O)c(O)c1)O[C@H](Cc1ccc(O)c(O)c1)C(=O)O", "note": "[SAA, Salvianolic Acid A]", "values": [{"measurement": "IC50", "result": "2300 ± 110", "unit": "nM"}]}]}
